The values below are quoted from earlier work in patent publication US20070134273A1, “Composition and method for the treatment of carcinoma” (priority 2004, published 2007).

Read-outs that look alike come from different tables or passages of the source.

The test system of data set [1] is peripheral blood mononuclear cells, monocytes, and dendritic cells. The note with it: in vitro and in vivo, versus imiquimod (Aldara R-837).
Where [2] appears, read: transurethral resection plus intravesical agent versus transurethral resection alone.

For the molecule `CCOCc1nc2c(N)nc3ccccc3c2n1CC(C)(C)O` [Resiquimod, 4-amino-2-ethoxymethyl-α, α-dimethyl-1H-imidazo[4,5-c]quinoline-1-ethanol], in data set [1], the “potency in inducing cytokines relative to imiquimod” value is on record as “about 100 times”. In the case of `COc1cccc2c1C(=O)c1c(O)c3c(c(O)c1C2=O)C[C@@](O)(C(=O)CO)C[C@@H]3O[C@H]1C[C@H](N)[C@H](O)[C@H](C)O1` [doxorubicin], in the data set on bladder cancer (setting [2]), the “studies with a significant reduction in tumor progression” value is listed as 0 of 2 and the “studies with a significant reduction in tumor recurrences” value is 2 of 4. `CO[C@@]12[C@H](COC(N)=O)C3=C(C(=O)C(C)=C(N)C3=O)N1C[C@@H]1N[C@@H]12` [mitomycin]: in the data set on bladder cancer (setting [2]), the “studies with a significant reduction in tumor progression” value was 0 of 2 and the “studies with a significant reduction in tumor recurrences” value was 2 of 5. Take `S=P(N1CC1)(N1CC1)N1CC1` [thiotepa]: in the data set with bladder cancer (in vivo), the “studies with a significant reduction in tumor progression” value is reported as 0 of 3 and the “studies with a significant reduction in tumor recurrences” value is listed as 6 of 10.
